Experimental data published in ChEMBL document CHEMBL1132741, “Novel antifungals based on 4-substituted imidazole: a combinatorial chemistry approach to lead discovery and optimization” (Bioorg Med Chem Lett, 2000).

system: Candida albicans; assay: Inhibition of ergosterol synthesis as measured in Candida albicans subcellular screen; type: functional

Compound	IC50 [nM]
CCCCCc1ccc(S(=O)(=O)N(CCC(C)C)Cc2c[nH]cn2)cc1	120
CCCCOc1ccc(S(=O)(=O)N(CCc2cccs2)Cc2c[nH]cn2)cc1	11

system: not listed separately; assay: Antifungal activity against molds expressed as negative log (pLAD value).; type: functional, mould

Compound	pLADm
CCCCOc1ccc(S(=O)(=O)N(Cc2c[nH]cn2)[C@H](C)C2CCCCC2)cc1	4.6
CCCCOc1ccc(S(=O)(=O)N(Cc2c[nH]cn2)[C@@H](C)C2CCCCC2)cc1	5
CCCCOc1ccc(S(=O)(=O)N(CCc2ccc(F)cc2)CC2=CNC(C)N2)cc1 (centres undefined)	3.92
CCCCOc1ccc(S(=O)(=O)N(CC2CCCCC2)C(C)c2c[nH]cn2)cc1 (centres undefined)	4
CCCCOc1ccc(S(=O)(=O)N(Cc2c[nH]cn2)CC2CCCCC2)cc1	3.6
CCCCOc1ccc(S(=O)(=O)N(CC2CCCCC2)C(c2ccccc2)c2c[nH]cn2)cc1 (centres undefined)	4
CCCCOc1ccc(S(=O)(=O)N(CCc2ccc(F)cc2)Cc2nc[nH]n2)cc1	3.92
CCCCOc1ccc(S(=O)(=O)N(Cc2c[nH]cn2)C(C2CCCCC2)C2CCCCC2)cc1	4
CCCCOc1ccc(S(=O)(=O)N(CCc2ccccc2F)Cc2[nH]cnc2C)cc1	<4
CCCCCc1ccc(S(=O)(=O)N(CCC(C)C)Cc2c[nH]cn2)cc1	5
CCCCOc1ccc(S(=O)(=O)N(CCc2cccs2)Cc2c[nH]cn2)cc1	4.4

system: Saccharomyces cerevisiae; assay: Antifungal activity against yeast expressed as negative log (pLAD value).; type: functional

Compound	pLADy
CCCCOc1ccc(S(=O)(=O)N(Cc2c[nH]cn2)[C@H](C)C2CCCCC2)cc1	6.13
CCCCOc1ccc(S(=O)(=O)N(Cc2c[nH]cn2)[C@@H](C)C2CCCCC2)cc1	5.9
CCCCOc1ccc(S(=O)(=O)N(CCc2ccc(F)cc2)CC2=CNC(C)N2)cc1 (centres undefined)	3.95
CCCCOc1ccc(S(=O)(=O)N(CC2CCCCC2)C(C)c2c[nH]cn2)cc1 (centres undefined)	6.3
CCCCOc1ccc(S(=O)(=O)N(Cc2c[nH]cn2)CC2CCCCC2)cc1	6.1
CCCCOc1ccc(S(=O)(=O)N(CC2CCCCC2)C(c2ccccc2)c2c[nH]cn2)cc1 (centres undefined)	5.1
CCCCOc1ccc(S(=O)(=O)N(CCc2ccc(F)cc2)Cc2nc[nH]n2)cc1	3.95
CCCCOc1ccc(S(=O)(=O)N(Cc2c[nH]cn2)C(C2CCCCC2)C2CCCCC2)cc1	5
CCCCOc1ccc(S(=O)(=O)N(CCc2ccccc2F)Cc2[nH]cnc2C)cc1	<4
CCCCCc1ccc(S(=O)(=O)N(CCC(C)C)Cc2c[nH]cn2)cc1	6.4
CCCCOc1ccc(S(=O)(=O)N(CCc2cccs2)Cc2c[nH]cn2)cc1	6.5
